Laboratory results from patent US11814390B2, “Crystalline forms of 2-[3-[4-amino-3-(2-fluoro-4-phenoxy-phenyl)-1H-pyrazolo[3,4-D]pyrimidin-1-yl]piperidine-1-carbonyl]-4-methyl-4-[4-(oxetan-3-yl)piperazin-1-yl]pent-2-enenitrile” (Principia Biopharma Inc., priority 2020, dated 2023).
Entries after “also recorded” stand apart in the source; their conditions may differ.

What was measured:
[1] = Conversion between crystalline forms over time / relative thermodynamic stability at room temperature; type: physicochemical
Protocol: Several crystallization experiments were conducted in as part of a polymorph study for Compound (I). The experiments comprised different crystallization techniques such as suspension equilibration experiments, precipitations, cooling crystallizations, and vapor diffusion experiments.

[2] = Water content upon storage at high relative humidity (hygroscopicity); type: physicochemical; conditions: storage at 85% relative humidity (RH)

SMILES | relative thermodynamic stability of crystalline form ([1]; at room temperature) | water content upon storage [2] | conversion of crystalline form over time ([1]; over time)
CC(C)(C=C(C#N)C(=O)N1CCC[C@@H](n2nc(-c3ccc(Oc4ccccc4)cc3F)c3c(N)ncnc32)C1)N1CCN(C2COC2)CC1 [Crystalline Form B, (R)-2-[3-[4-amino-3-(2-fluoro-4-phenoxy-phenyl)pyrazolo[3,4-d]pyrimidin-1-yl]piperidine-1-carbonyl]-4-methyl-4-[4-(oxetan-3-yl)piperazin-1-yl]pent-2-enenitrile] | may be thermodynamically more stable than crystalline Form A; also recorded: may be more thermodynamically more stable than crystalline Form C | – | –
CC(C)(C=C(C#N)C(=O)N1CCC[C@@H](n2nc(-c3ccc(Oc4ccccc4)cc3F)c3c(N)ncnc32)C1)N1CCN(C2COC2)CC1 [crystalline Form A, (R)-2-[3-[4-amino-3-(2-fluoro-4-phenoxy-phenyl)pyrazolo[3,4-d]pyrimidin-1-yl]piperidine-1-carbonyl]-4-methyl-4-[4-(oxetan-3-yl)piperazin-1-yl]pent-2-enenitrile] | – | less than 1% | may convert to crystalline Form B over time
